The text below walks through data of article PMC7932537, “Quantitative profiling of protease specificity” (PLoS Computational Biology, 2021).

Assay [1] concerns the target MMP-9 (Homo sapiens, UniProt P14780). Description: K(obs) of individual phage substrates (set of 1369). Type of assay: biochemical. As to conditions: MMP9, individual phage substrates, set of 1369 peptides.
The target of assay [2] is T1, MMP-2 (Homo sapiens, UniProt P08253).
T1 sequence (P08253 110-660): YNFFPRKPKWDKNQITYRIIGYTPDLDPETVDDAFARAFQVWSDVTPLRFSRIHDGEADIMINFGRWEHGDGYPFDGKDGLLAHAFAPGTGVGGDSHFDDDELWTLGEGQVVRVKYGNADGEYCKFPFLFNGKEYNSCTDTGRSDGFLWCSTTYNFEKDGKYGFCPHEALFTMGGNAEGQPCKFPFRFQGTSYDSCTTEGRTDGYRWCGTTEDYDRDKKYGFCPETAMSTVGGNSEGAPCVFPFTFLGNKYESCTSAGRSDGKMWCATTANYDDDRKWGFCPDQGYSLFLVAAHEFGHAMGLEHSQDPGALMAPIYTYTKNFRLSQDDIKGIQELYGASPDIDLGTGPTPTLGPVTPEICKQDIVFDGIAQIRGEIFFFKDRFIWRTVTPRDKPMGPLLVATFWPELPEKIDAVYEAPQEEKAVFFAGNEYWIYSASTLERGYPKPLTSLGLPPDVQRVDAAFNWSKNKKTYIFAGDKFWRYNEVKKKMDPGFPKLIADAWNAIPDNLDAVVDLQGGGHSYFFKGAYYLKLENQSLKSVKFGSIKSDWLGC
Described as above. It counts as biochemical. As to conditions: MMP2.

[3] abbreviates: '-' marks the cleavage position (P1-P1').
The mark [4] stands for this setting: individual phage substrates, set of 1369 peptides, cleavage position marked by '-' in the sequence.
The mark [5] stands for this setting: dash in sequence marks cleavage position.
The mark [6] stands for this setting: individual phage substrate from the set of 1369 peptides, cleavage position marked by the dash in the sequence.

Sequence of MMP-9 (P14780 94-707): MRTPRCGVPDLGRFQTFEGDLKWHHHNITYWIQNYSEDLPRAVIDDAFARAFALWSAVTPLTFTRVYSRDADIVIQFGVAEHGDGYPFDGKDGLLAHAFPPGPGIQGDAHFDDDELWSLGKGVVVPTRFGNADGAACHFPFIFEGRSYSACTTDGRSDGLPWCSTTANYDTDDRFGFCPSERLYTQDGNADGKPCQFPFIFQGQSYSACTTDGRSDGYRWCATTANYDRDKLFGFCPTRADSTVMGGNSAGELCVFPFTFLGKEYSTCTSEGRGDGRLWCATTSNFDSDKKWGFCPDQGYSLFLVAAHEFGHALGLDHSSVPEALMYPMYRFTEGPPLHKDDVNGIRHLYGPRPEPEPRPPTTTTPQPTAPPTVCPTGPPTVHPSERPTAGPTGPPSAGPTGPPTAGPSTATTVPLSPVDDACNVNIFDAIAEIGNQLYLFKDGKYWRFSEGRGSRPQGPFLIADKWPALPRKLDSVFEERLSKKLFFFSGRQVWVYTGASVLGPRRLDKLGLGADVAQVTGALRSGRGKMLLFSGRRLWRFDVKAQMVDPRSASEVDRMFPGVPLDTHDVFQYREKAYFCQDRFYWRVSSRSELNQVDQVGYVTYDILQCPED

As to GSPLS-WRTAS, the “Kobs” value in assay [1] (setting [3]) worked out at 6396.07 M⁻¹ s⁻¹; in assay [2] (setting [4]) it was 7815.03 M⁻¹ s⁻¹.
As for KAPLK-LTASG, the “Kobs” value in assay [1] (setting [5]) and in assay [2] (setting [6]) was 12792.1 M⁻¹ s⁻¹ each time.
Take SGANY-IRATA: the “Kobs” value in assay [1] (setting [5]) worked out at 418.952 M⁻¹ s⁻¹; in assay [2] (setting [6]) it was 1465.65 M⁻¹ s⁻¹.
Taken in the same sequence, the figures for SGVHR-LSYTA were 0 M⁻¹ s⁻¹ and 0 M⁻¹ s⁻¹.
Consider GTVWA-LTTAS, for which the “Kobs” value in assay [1] (setting [3]) was 2218.08 M⁻¹ s⁻¹; in assay [2] (setting [4]) it was 292.668 M⁻¹ s⁻¹.
Taken in the same sequence, the figures for SGYRF-MTLTA were 0 M⁻¹ s⁻¹ and 0 M⁻¹ s⁻¹.
For GGSGA-LQRLP the same measures were 0 M⁻¹ s⁻¹ and 113.394 M⁻¹ s⁻¹.
Taken in the same sequence, the figures for RPAQD-LTASG were 231.616 M⁻¹ s⁻¹ and 27.918 M⁻¹ s⁻¹.
On to SGVWG-IRYTA, for which the “Kobs” value is 1925.41 M⁻¹ s⁻¹ in assay [1] (setting [3]) and 654.784 M⁻¹ s⁻¹ in assay [2] (setting [4]).
Taken in the same sequence, the figures for SGALG-LLETA were 171.876 M⁻¹ s⁻¹ and 171.876 M⁻¹ s⁻¹.
With SGPRS-LSQTA, the “Kobs” value in assay [1] (setting [5]) amounted to 8941.32 M⁻¹ s⁻¹; in assay [2] (setting [6]) it was 12792.1 M⁻¹ s⁻¹.
GTLAQ-ISTAS: the “Kobs” value in assay [1] (setting [5]) is 517.582 M⁻¹ s⁻¹; in assay [2] (setting [6]) it was 0 M⁻¹ s⁻¹.
For GVSAR-LVTAS the same measures were 0 M⁻¹ s⁻¹ and 142.481 M⁻¹ s⁻¹.
For NDLAH-ITASG, the “Kobs” value was determined as 0 M⁻¹ s⁻¹ in assay [1] (setting [5]) and 10866.7 M⁻¹ s⁻¹ in assay [2] (setting [6]).
For VEAHA-LTASG, the “Kobs” value in assay [1] (setting [5]) came out at 2837.92 M⁻¹ s⁻¹; in assay [2] (setting [6]), 7015.91 M⁻¹ s⁻¹.
Consider SGYMH-IKVTA, for which the “Kobs” value in assay [1] (setting [3]) and in assay [2] (setting [4]) was 0 M⁻¹ s⁻¹ each time.
With GKPNR-LVTAS, the “Kobs” value in assay [1] (setting [5]) turned out to be 1239.69 M⁻¹ s⁻¹; in assay [2] (setting [6]) it was 2761.81 M⁻¹ s⁻¹.
Consider QSPVQ-LTASG, for which the “Kobs” value in assay [1] (setting [3]) is 4205.91 M⁻¹ s⁻¹; in assay [2] (setting [4]) it was 12792.1 M⁻¹ s⁻¹.
Regarding SGWAS-MRLTA, the “Kobs” value in assay [1] (setting [3]) amounted to 142.481 M⁻¹ s⁻¹; in assay [2] (setting [4]) it was 0 M⁻¹ s⁻¹.
Taken in the same sequence, the figures for ISPML-LTASG were 12792.1 M⁻¹ s⁻¹ and 1196.62 M⁻¹ s⁻¹.
With KRAAS-LTASG, the “Kobs” value worked out at 1283.43 M⁻¹ s⁻¹ in assay [1] (setting [3]) and 12792.1 M⁻¹ s⁻¹ in assay [2] (setting [4]).
For SGAMN-LTLTA the same measures were 0 M⁻¹ s⁻¹ and 0 M⁻¹ s⁻¹.
As to GSGLA-LKMGT, the “Kobs” value in assay [1] (setting [5]) worked out at 0 M⁻¹ s⁻¹; in assay [2] (setting [6]), 84.609 M⁻¹ s⁻¹.
For SRPLN-LTASG the same measures were 7386.83 M⁻¹ s⁻¹ and 6688.74 M⁻¹ s⁻¹.
For the substance SGAQA-LTLTA, the “Kobs” value was 113.394 M⁻¹ s⁻¹ in assay [1] (setting [3]) and 171.876 M⁻¹ s⁻¹ in assay [2] (setting [4]).
For the substance SGPMA-LKSTA, the “Kobs” value in assay [1] (setting [5]) was 8321.48 M⁻¹ s⁻¹; in assay [2] (setting [6]), 8941.32 M⁻¹ s⁻¹.
On to RKALN-LTASG, for which the “Kobs” value turned out to be 5667.28 M⁻¹ s⁻¹ in assay [1] (setting [3]) and 4613.14 M⁻¹ s⁻¹ in assay [2] (setting [4]).
As to GGSGE-LRLSN, the “Kobs” value amounted to 0 M⁻¹ s⁻¹ in assay [1] (setting [3]) and 56.119 M⁻¹ s⁻¹ in assay [2] (setting [4]).
For the substance SPALD-MTASG, the entries for the “Kobs” value in assay [1] (setting [5]) and in assay [2] (setting [6]) were 231.616 M⁻¹ s⁻¹ and 0 M⁻¹ s⁻¹, respectively.
With FHIAH-LTASG, the “Kobs” value came out at 3850.82 M⁻¹ s⁻¹ in assay [1] (setting [3]) and 12792.1 M⁻¹ s⁻¹ in assay [2] (setting [4]).
Regarding DAPYF-LTASG, the “Kobs” value was 8321.48 M⁻¹ s⁻¹ in assay [1] (setting [5]) and 5667.28 M⁻¹ s⁻¹ in assay [2] (setting [6]).
Taken in the same sequence, the figures for GTPSK-LYTAS were 2038.8 M⁻¹ s⁻¹ and 6131.32 M⁻¹ s⁻¹.
Take SGPWG-LLETA: the “Kobs” value in assay [1] (setting [3]) is 12792.1 M⁻¹ s⁻¹; in assay [2] (setting [4]) it was 2409.72 M⁻¹ s⁻¹.
For the substance VMHQN-LTASG, the “Kobs” value in assay [1] (setting [5]) amounted to 171.876 M⁻¹ s⁻¹; in assay [2] (setting [6]), 8941.32 M⁻¹ s⁻¹.
Take CLLAS-LTASG: the “Kobs” value in assay [1] (setting [5]) worked out at 0 M⁻¹ s⁻¹; in assay [2] (setting [6]), 6396.07 M⁻¹ s⁻¹.
Taken in the same sequence, the figures for GSPLD-LKTAS were 8941.32 M⁻¹ s⁻¹ and 12792.1 M⁻¹ s⁻¹.
Taken in the same sequence, the figures for VKAQH-LTASG were 2476.66 M⁻¹ s⁻¹ and 7815.03 M⁻¹ s⁻¹.
GALDW-MSTAS: the “Kobs” value in assay [1] (setting [3]) and in assay [2] (setting [4]) was 0 M⁻¹ s⁻¹ throughout.
Consider GSGWR-LTVGT, for which the “Kobs” value in assay [1] (setting [5]) was determined as 27.918 M⁻¹ s⁻¹; in assay [2] (setting [6]) it was 0 M⁻¹ s⁻¹.
Take GTIAH-LHTAS: the figures for the “Kobs” value in assay [1] (setting [3]) and in assay [2] (setting [4]) were 0 M⁻¹ s⁻¹ and 10866.7 M⁻¹ s⁻¹, respectively.
For SGPAG-MHSTA the same measures were 7015.91 M⁻¹ s⁻¹ and 12792.1 M⁻¹ s⁻¹.
For YQTMA-LTASG the same measures were 585.336 M⁻¹ s⁻¹ and 551.253 M⁻¹ s⁻¹.
With GGSGF-LMSWM, the “Kobs” value in assay [1] (setting [3]) came to 1112.44 M⁻¹ s⁻¹; in assay [2] (setting [4]), 12792.1 M⁻¹ s⁻¹.
For EPIYN-LTASG the same measures were 2761.81 M⁻¹ s⁻¹ and 619.843 M⁻¹ s⁻¹.
As to GGSGA-LHRPG, the “Kobs” value came out at 0 M⁻¹ s⁻¹ in assay [1] (setting [5]) and 1071.29 M⁻¹ s⁻¹ in assay [2] (setting [6]).
For GGSGR-LTLKW the same measures were 0 M⁻¹ s⁻¹ and 0 M⁻¹ s⁻¹.
For ERLLH-LTASG the same measures were 231.616 M⁻¹ s⁻¹ and 2837.92 M⁻¹ s⁻¹.
As to TVSLP-LTASG, the “Kobs” value was found to be 355.093 M⁻¹ s⁻¹ in assay [1] (setting [5]) and 2097.28 M⁻¹ s⁻¹ in assay [2] (setting [6]).
In the case of GQPRN-LSTAS, the “Kobs” value in assay [1] (setting [5]) and in assay [2] (setting [6]) was 12792.1 M⁻¹ s⁻¹ throughout.
Regarding STVRN-LTASG, the “Kobs” value in assay [1] (setting [3]) was found to be 4470.66 M⁻¹ s⁻¹; in assay [2] (setting [4]) it was 12792.1 M⁻¹ s⁻¹.
Taken in the same sequence, the figures for KAALP-LTASG were 3964.21 M⁻¹ s⁻¹ and 2916.17 M⁻¹ s⁻¹.
For TAPIN-LTASG the same measures were 12792.1 M⁻¹ s⁻¹ and 12792.1 M⁻¹ s⁻¹.
For GYGLH-LRTAS the same measures were 261.974 M⁻¹ s⁻¹ and 201.585 M⁻¹ s⁻¹.
On to SGVNR-ISLTA, for which the “Kobs” value worked out at 0 M⁻¹ s⁻¹ in assay [1] (setting [5]) and 113.394 M⁻¹ s⁻¹ in assay [2] (setting [6]).
For the substance TLTHH-LTASG, the “Kobs” value in assay [1] (setting [3]) and in assay [2] (setting [4]) was 0 M⁻¹ s⁻¹ throughout.
In the case of VTVIA-LTASG, the results for the “Kobs” value in assay [1] (setting [3]) and in assay [2] (setting [4]) were 951.362 M⁻¹ s⁻¹ and 1711.63 M⁻¹ s⁻¹, respectively.
For GRPLQ-YRTAS the same measures were 10866.7 M⁻¹ s⁻¹ and 12792.1 M⁻¹ s⁻¹.
Taken in the same sequence, the figures for GSGMR-LVLRT were 0 M⁻¹ s⁻¹ and 0 M⁻¹ s⁻¹.
Take RHMLG-LTASG: the entries for the “Kobs” value in assay [1] (setting [5]) and in assay [2] (setting [6]) were 726.013 M⁻¹ s⁻¹ and 1154.21 M⁻¹ s⁻¹, respectively.
For GEIAS-LSTAS the same measures were 84.609 M⁻¹ s⁻¹ and 7386.83 M⁻¹ s⁻¹.
For GGSGN-LVRVR the same measures were 0 M⁻¹ s⁻¹ and 142.481 M⁻¹ s⁻¹.
As to SGIYG-LRNTA, the results for the “Kobs” value in assay [1] (setting [3]) and in assay [2] (setting [4]) were 2157.02 M⁻¹ s⁻¹ and 1981.53 M⁻¹ s⁻¹, respectively.
For GVLFH-LSTAS the same measures were 0 M⁻¹ s⁻¹ and 0 M⁻¹ s⁻¹.
With SGARG-IKLTA, the “Kobs” value in assay [1] (setting [5]) and in assay [2] (setting [6]) was 0 M⁻¹ s⁻¹ each time.
For ERPGW-LTASG, the “Kobs” value was determined as 3438.54 M⁻¹ s⁻¹ in assay [1] (setting [3]) and 7386.83 M⁻¹ s⁻¹ in assay [2] (setting [4]).
Taken in the same sequence, the figures for SGANS-LVATA were 27.918 M⁻¹ s⁻¹ and 1327.88 M⁻¹ s⁻¹.
Taken in the same sequence, the figures for GTIAY-LNTAS were 0 M⁻¹ s⁻¹ and 1870.4 M⁻¹ s⁻¹.
Taken in the same sequence, the figures for SGSWS-LILTA were 0 M⁻¹ s⁻¹ and 0 M⁻¹ s⁻¹.
Take QKYSN-LTASG: the “Kobs” value in assay [1] (setting [3]) worked out at 0 M⁻¹ s⁻¹; in assay [2] (setting [4]), 5889.62 M⁻¹ s⁻¹.
Taken in the same sequence, the figures for TVLRS-LTASG were 3536.02 M⁻¹ s⁻¹ and 12792.1 M⁻¹ s⁻¹.
Take GVPLN-VKTAS: the “Kobs” value in assay [1] (setting [3]) worked out at 12792.1 M⁻¹ s⁻¹; in assay [2] (setting [4]), 5090.5 M⁻¹ s⁻¹.
Regarding GGSGQ-LRREY, the “Kobs” value in assay [1] (setting [5]) and in assay [2] (setting [6]) was 355.093 M⁻¹ s⁻¹ throughout.
Regarding GGSGR-LLQFL, the “Kobs” value came to 0 M⁻¹ s⁻¹ in assay [1] (setting [3]) and 8321.48 M⁻¹ s⁻¹ in assay [2] (setting [4]).
ELPNF-LTASG: the “Kobs” value in assay [1] (setting [3]) came to 231.616 M⁻¹ s⁻¹; in assay [2] (setting [4]), 951.362 M⁻¹ s⁻¹.
In the case of GSGMA-LTHIT, the “Kobs” value in assay [1] (setting [5]) and in assay [2] (setting [6]) was 84.609 M⁻¹ s⁻¹ throughout.
As to RGMQN-LTASG, the entries for the “Kobs” value in assay [1] (setting [3]) and in assay [2] (setting [4]) were 690.17 M⁻¹ s⁻¹ and 1610.61 M⁻¹ s⁻¹, respectively.
Taken in the same sequence, the figures for GRLGC-LKTAS were 113.394 M⁻¹ s⁻¹ and 1112.44 M⁻¹ s⁻¹.
Taken in the same sequence, the figures for SGPSS-LLGTA were 12792.1 M⁻¹ s⁻¹ and 12792.1 M⁻¹ s⁻¹.
Take GGSGR-LKWNL: the figures for the “Kobs” value in assay [1] (setting [5]) and in assay [2] (setting [6]) were 690.17 M⁻¹ s⁻¹ and 551.253 M⁻¹ s⁻¹, respectively.
